Data taken from US5670482A, “Neuropeptide Y antagonists” (Glaxo Wellcome Inc., priority 1992, dated 1997).
Positions of bridges follow the written chain, without caps; N, C: chain ends. Chains are numbered I, II in the order given. No end group written: not given here.

Test system: NPY-induced increase of perfusion pressure in isolated perfused rat kidney
Test: Isolated perfused rat kidney preparation
Conditions: antagonist infused during 5 min, read-out: IC50 for the inhibition of the NPY-induced increase of perfusion pressure
Protocol: Male CD rats (200-400 g) are anaesthetised with a mixture of Acepromazine (2.8 mg/kg) and Kenamine (112 mg/kg) injected i.p. The rat's abdomen is opened through the midline. The renal arteries and descending aorta are cleaned and, with minimal disruption of blood flow, one kidney is cannulated through the proximal renal artery using a stainless steel 20G blunt-tipped needle attached to Tygon tubing and a peristaltic pump. As soon as the first ligature is complete and perfusion of the kidney starts (10 ml/min) and the kidney is removed from the animal and placed in a constant temperature perfusion chamber. The perfusion pressure is followed by an on-line Statham pressure transducer and changes recorded in a Grass Polygraph.
Administration of Drugs: Neuropeptide Y and other agonists are administered by a single bolus injection (0.1 ml) through an injection port situated about 6 inches from the tip of the needle (approximately 0.3 ml, total volume). Antagonists are infused during 5 min (0.15 ml/min) into the kidney through an injection port situtated before the perfusion pump to allow for good mixing and constant concentration (dilution of 0.15 ml into 10 ml). […]
Results: Using the above experimental procedure we have determined the IC50 for the inhibition of the NPY-induced increase of perfusion pressure for: […]

| Substance | IC50 [nM] |
| --- | --- |
| IleCysProCysTyrArgLeuArgTyr-NH2,Cyclic (2,2'),(4,4')-Disulfide Dimer (chain 1 ICPCYRLRY-NH2; chain 2 ICPCYRLRY-NH2; disulfide I:2-II:2, I:4-II:4; N-terminus assumed; SMILES CC[C@H](C)[C@H](N)C(=O)N[C@H]1CSSC[C@H](NC(=O)[C@@H](N)[C@@H](C)CC)C(=O)N2CCC[C@H]2C(=O)N[C@H](C(=O)N[C@@H](Cc2ccc(O)cc2)C(=O)N[C@@H](CCCNC(=N)N)C(=O)N[C@@H](CC(C)C)C(=O)N[C@@H](CCCNC(=N)N)C(=O)N[C@@H](Cc2ccc(O)cc2)C(N)=O)CSSC[C@@H](C(=O)N[C@@H](Cc2ccc(O)cc2)C(=O)N[C@@H](CCCNC(=N)N)C(=O)N[C@@H](CC(C)C)C(=O)N[C@@H](CCCNC(=N)N)C(=O)N[C@@H](Cc2ccc(O)cc2)C(N)=O)NC(=O)[C@@H]2CCCN2C1=O) | 2.5 |
| IleCysProCysTyrArgLeuArgTyr-NH2,Cyclic (2,4'),(4,2')-Disulfide Dimer (chain 1 ICPCYRLRY-NH2; chain 2 ICPCYRLRY-NH2; disulfide (positions not given here); not fully specified (bridges)) | 2.5 |
